Laboratory results taken from PubChem BioAssay AID2060489 (Molecular Pharmacology Branch, DTP, NCI, 2025).
Several values for one entry are separate records, joined by “and”; a condition that tells them apart may be missing. Equal values may be shown once.

Tested on: 922993-354-T-J3-PDC complex spheroids, viability
Assay: Anticancer human tumor 922993-354-T-J3-PDC patient-derived endometrial carcinoma cell line growth inhibition [GQUAD]
Conditions: for viability, T/C: stronger effect = lower value
From the text: DNA G-quadruplex Stabilizer Agents in Combinations in Complex Spheroids
A high-throughput screen of multi-cell type tumor spheroids was designed to identify active combinations of DNA G-quadruplex stabilizer agents and targeted small molecules. Complex spheroids include a stromal component modeled by human endothelial cells (HUVEC) and fibroblasts modeled by human mesenchymal stem cells (MSCs). The concentration ranges selected for each drug and investigational agent were based upon clinically achievable concentrations if the clinical Cmax of the agent was known.
Compounds. The drugs and investigational agents: pidnarulex (CX-5461; NSC782164), APTO-253 (NSC789042), BRACO-19 (NSC847499), peposertib (NSC802822), ceralasertib (NSC780249), elimusertib (NSC800525), camonsertib (NSC841442), AZD-1390 (NSC803789), olaparib (NSC753686), talazoparib (NSC767125), ART-558 (NSC835418), sotorasib (NSC818433), MRTX-1133 (NSC836407), SN-38 (NSC673596), topotecan (NSC609699), etoposide (NSC141540), doxorubicin (NSC123127), gemcitabine (NSC613327), 5-fluorouracil (NSC19893), paclitaxel (NSC125973), vemurafenib (NSC761431), panobinostat (NSC761190), R-306465 (JNJ-16241199; NSC773264), adavosertib (NSC754352), TP-3654 (NSC805149), carboplatin (NSC241240), KSQ-4279 (NSC840948), and staurosporine (NSC755774) were obtained from the National Cancer Institute (NCI) Developmental Therapeutics Program Chemical Repository (34). The FDA-approved anticancer drug set is available from the NCI Developmental Therapeutics Program. […] The stock solutions were prepared in dimethyl sulfoxide (DMSO, Sigma-Aldrich, St. Louis, MO, cat. D2650) at 800-fold the tested concentration and stored at -70 degrees C prior to their use. All drugs and investigational agents were tested over a range starting from a high concentration at or near the clinical Cmax and decreasing in half-log increments. If the clinical Cmax for an agent had not been determined, the highest concentration tested was 10 microM.
2.3 Cell Culture. All cells were maintained in an incubator at 37 degrees C and 5% CO2 with 95% humidity. The PDC lines were cultured according to standard operating procedures established by the NCI PDMR. All PDCs were thawed and cultured in Matrigel-coated flasks prepared with a working solution of 1X Ham's F-12 nutrient mix, without supplementation (Invitrogen, cat. 11765054), 100 U/mL penicillin-streptomycin (Invitrogen, cat. 15140122), and 2.5% Matrigel (Corning Inc., cat. 354248) for the first three passages. The 857933-349-R-J2-PDC line was cultured in 6C/Colon 1B media, which includes advanced DMEM/F-12 (Thermo Fisher Scientific, cat. 12634028), 10 mM HEPES (Thermo Fisher Scientific, cat. 15630080), 1X GlutaMAX supplement (Thermo Fisher Scientific, cat. 35050061), 0.1 mg/mL primocin (InvivoGen, cat. ant-pm-2), 10% defined fetal bovine serum, heat inactivated (HyClone Laboratories Inc., cat. SH30070.03HI), 50% L-WRN conditioned media (ATCC, cat. CRL-3276), 1.25 mM N-Acetyl-L-cysteine (Sigma-Aldrich, cat. A9165), 10 mM nicotinamide (Sigma-Aldrich, cat. N0636), 1X B-27 supplement (Thermo Fisher Scientific, cat. 17504044), 1X N-2 supplement (Thermo Fisher Scientific, cat. 17502048), 10 microM Y-27632 dihydrochloride (Tocris Bioscience, cat. 1254), and 50 ng/mL human EGF recombinant protein (Thermo Fisher Scientific, cat. PHG0311). The 485176-168-R4-J1-PDC line was cultured in Panc media, which includes all 6C/Colon 1B media components plus 100 ng/mL human FGF-10 (Thermo Fisher Scientific, cat. 100-26), 500 nM SB-431542 (Selleckchem, cat. S1067), and gastrin (Tocris, cat. 3006).
[…]

[1] = curve of first compound, second compound 0.0316 µM
[2] = curve of first compound, second compound 0.1 µM
[3] = curve of first compound, second compound 0.316 µM
[4] = curve of first compound, second compound 1 µM
[5] = curve of first compound, second compound 3.16 µM
[6] = curve of first compound, second compound 10 µM
[7] = second compound 0.0316 µM, first compound 0.0316 µM
[8] = second compound 0.0316 µM, first compound 0.1 µM
[9] = second compound 0.0316 µM, first compound 0.316 µM
[10] = second compound 0.0316 µM, first compound 1 µM
[11] = second compound 0.0316 µM, first compound 3.16 µM
[12] = second compound 0.0316 µM, first compound 10 µM
[13] = second compound 0.1 µM, first compound 0.0316 µM
[14] = second compound 0.1 µM, first compound 0.1 µM
[15] = second compound 0.1 µM, first compound 0.316 µM
[16] = second compound 0.1 µM, first compound 1 µM
[17] = second compound 0.1 µM, first compound 3.16 µM
[18] = second compound 0.1 µM, first compound 10 µM
[19] = second compound 0.316 µM, first compound 0.0316 µM
[20] = second compound 0.316 µM, first compound 0.1 µM
[21] = second compound 0.316 µM, first compound 0.316 µM
[22] = second compound 0.316 µM, first compound 1 µM
[23] = second compound 0.316 µM, first compound 3.16 µM
[24] = second compound 0.316 µM, first compound 10 µM
[25] = second compound 1 µM, first compound 0.0316 µM
[26] = second compound 1 µM, first compound 0.1 µM
[27] = second compound 1 µM, first compound 0.316 µM
[28] = second compound 1 µM, first compound 1 µM
[29] = second compound 1 µM, first compound 3.16 µM
[30] = second compound 1 µM, first compound 10 µM
[31] = second compound 3.16 µM, first compound 0.0316 µM
[32] = second compound 3.16 µM, first compound 0.1 µM
[33] = second compound 3.16 µM, first compound 0.316 µM
[34] = second compound 3.16 µM, first compound 1 µM
[35] = second compound 3.16 µM, first compound 3.16 µM
[36] = second compound 3.16 µM, first compound 10 µM
[37] = second compound 10 µM, first compound 0.0316 µM
[38] = second compound 10 µM, first compound 0.1 µM
[39] = second compound 10 µM, first compound 0.316 µM
[40] = second compound 10 µM, first compound 1 µM
[41] = second compound 10 µM, first compound 3.16 µM
[42] = second compound 10 µM, first compound 10 µM
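Further: spheroids exposed to compounds for seven days.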
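Wherever viability, T/C is given: 100% = DMSO vehicle control viability.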

COc1ccc([C@@H](O)c2cc(-c3ncnc4cc(N5CCOCC5)ccc34)c(F)cc2Cl)nn1
viability, T/C (compound 0.0316 µM): 93.2% and 109% and 98.5% | viability, T/C (compound 0.1 µM): 99.4% and 61.7% and 94.8% | viability, T/C (compound 0.316 µM): 103% and 87% and 92.8% | viability, T/C (compound 1 µM): 93.4% and 83.4% and 86.5% | viability, T/C (compound 3.16 µM): 92% and 94.4% and 85% | viability, T/C (compound 10 µM): 69.3% and 69% and 52.9% | IC50 (curve of compound): > 10 µM

O=C(c1cc(Cc2n[nH]c(=O)c3ccccc23)ccc1F)N1CCN(C(=O)C2CC2)CC1
viability, T/C (compound 0.0316 µM): 86.5% and 123% and 91.1% | viability, T/C (compound 0.1 µM): 93% and 92.2% and 94.4% | viability, T/C (compound 0.316 µM): 102% and 98.1% and 105% | viability, T/C (compound 1 µM): 86.7% and 85.6% and 86.3% | viability, T/C (compound 3.16 µM): 88.2% and 92.5% and 92.1% | viability, T/C (compound 10 µM): 99.3% and 77.2% and 85.4% | IC50 (curve of compound): > 10 µM

C=CC(=O)N1CCN(c2nc(=O)n(-c3c(C)ccnc3C(C)C)c3nc(-c4c(O)cccc4F)c(F)cc23)C(C)C1 (stereo not drawn) + CN(C)c1ccc(Nc2c3ccc(NC(=O)CCN4CCCC4)cc3nc3cc(NC(=O)CCN4CCCC4)ccc23)cc1
IC50 [1]: > 10 µM | IC50 [2]: > 10 µM | IC50 [3]: > 10 µM | IC50 [4]: > 10 µM | IC50 [5]: > 10 µM | IC50 [6]: > 10 µM | viability, T/C [7]: 96.9% | viability, T/C [8]: 84.8% | viability, T/C [9]: 102% | viability, T/C [10]: 104% | viability, T/C [11]: 97% | viability, T/C [12]: 119% | viability, T/C [13]: 109% | viability, T/C [14]: 109% | viability, T/C [15]: 112% | viability, T/C [16]: 94.5% | viability, T/C [17]: 128% | viability, T/C [18]: 109% | viability, T/C [19]: 112% | viability, T/C [20]: 120% | viability, T/C [21]: 96.7% | viability, T/C [22]: 128% | viability, T/C [23]: 103% | viability, T/C [24]: 104% | viability, T/C [25]: 111% | viability, T/C [26]: 118% | viability, T/C [27]: 99.6% | viability, T/C [28]: 125% | viability, T/C [29]: 117% | viability, T/C [30]: 120% | viability, T/C [31]: 107% | viability, T/C [32]: 128% | viability, T/C [33]: 107% | viability, T/C [34]: 139% | viability, T/C [35]: 137% | viability, T/C [36]: 117% | viability, T/C [37]: 115% | viability, T/C [38]: 140% | viability, T/C [39]: 142% | viability, T/C [40]: 137% | viability, T/C [41]: 153% | viability, T/C [42]: 142%

CC(C)n1c(=O)n(C)c2cnc3cc(F)c(-c4ccc(OCCCN5CCCCC5)nc4)cc3c21 + Cc1[nH]c2ccc(F)cc2c1-c1nc2c3cccnc3c3ncccc3c2[nH]1
IC50 [1]: > 10 µM | IC50 [2]: > 10 µM | IC50 [3]: > 10 µM | IC50 [4]: > 10 µM | IC50 [5]: > 10 µM | IC50 [6]: > 10 µM | viability, T/C [7]: 110% | viability, T/C [8]: 123% | viability, T/C [9]: 113% | viability, T/C [10]: 91.4% | viability, T/C [11]: 77.3% | viability, T/C [12]: 71.3% | viability, T/C [13]: 116% | viability, T/C [14]: 95.3% | viability, T/C [15]: 103% | viability, T/C [16]: 96.2% | viability, T/C [17]: 72.9% | viability, T/C [18]: 60.3% | viability, T/C [19]: 91.8% | viability, T/C [20]: 124% | viability, T/C [21]: 115% | viability, T/C [22]: 114% | viability, T/C [23]: 88.2% | viability, T/C [24]: 62.9% | viability, T/C [25]: 118% | viability, T/C [26]: 83.4% | viability, T/C [27]: 131% | viability, T/C [28]: 112% | viability, T/C [29]: 88.5% | viability, T/C [30]: 75.9% | viability, T/C [31]: 100% | viability, T/C [32]: 89.5% | viability, T/C [33]: 91.5% | viability, T/C [34]: 95.1% | viability, T/C [35]: 84.8% | viability, T/C [36]: 80.8% | viability, T/C [37]: 98.9% | viability, T/C [38]: 93.7% | viability, T/C [39]: 94% | viability, T/C [40]: 97.4% | viability, T/C [41]: 85.5% | viability, T/C [42]: 73.8%
